Molecules are shown by their SMILES.

Assay [1] addresses 5-hydroxytryptamine receptor 2A (Sus scrofa, UniProt P50129). Briefly: (§1) Antagonist activity at serotonin 5HT2A receptor assessed as effect on 5HT-induced isometric contractile force in isolated rings of pig coronary artery. In kind it is functional, tissue-based. The conditions noted are these: read-out: pA2 (converted).
A further assay has as its target D(1A) dopamine receptor (Homo sapiens, UniProt P21728). In words: Displacement […] from human cloned dopamine D1 receptor.
The target of another assay is D(2) dopamine receptor (Homo sapiens, UniProt P14416). In words: Displacement […] from human cloned dopamine D2L receptor.
Sequence of D(2) dopamine receptor (P14416 whole entry): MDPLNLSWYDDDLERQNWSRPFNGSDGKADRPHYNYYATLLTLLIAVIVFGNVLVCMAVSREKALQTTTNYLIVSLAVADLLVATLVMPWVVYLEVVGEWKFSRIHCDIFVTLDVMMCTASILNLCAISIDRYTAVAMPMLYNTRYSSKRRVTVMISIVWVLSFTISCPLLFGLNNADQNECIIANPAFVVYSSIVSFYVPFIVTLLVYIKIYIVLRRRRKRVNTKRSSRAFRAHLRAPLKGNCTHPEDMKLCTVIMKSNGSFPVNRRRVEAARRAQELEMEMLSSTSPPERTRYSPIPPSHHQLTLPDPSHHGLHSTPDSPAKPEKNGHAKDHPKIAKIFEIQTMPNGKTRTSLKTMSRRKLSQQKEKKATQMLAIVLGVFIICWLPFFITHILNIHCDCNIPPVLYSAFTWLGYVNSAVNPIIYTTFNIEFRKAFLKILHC
Assay [2] addresses 5-hydroxytryptamine receptor 2A (Sus scrofa) (UniProt P50129). The description is as §1. In kind it is functional, tissue-based.

Sequence of D(1A) dopamine receptor (P21728 whole entry): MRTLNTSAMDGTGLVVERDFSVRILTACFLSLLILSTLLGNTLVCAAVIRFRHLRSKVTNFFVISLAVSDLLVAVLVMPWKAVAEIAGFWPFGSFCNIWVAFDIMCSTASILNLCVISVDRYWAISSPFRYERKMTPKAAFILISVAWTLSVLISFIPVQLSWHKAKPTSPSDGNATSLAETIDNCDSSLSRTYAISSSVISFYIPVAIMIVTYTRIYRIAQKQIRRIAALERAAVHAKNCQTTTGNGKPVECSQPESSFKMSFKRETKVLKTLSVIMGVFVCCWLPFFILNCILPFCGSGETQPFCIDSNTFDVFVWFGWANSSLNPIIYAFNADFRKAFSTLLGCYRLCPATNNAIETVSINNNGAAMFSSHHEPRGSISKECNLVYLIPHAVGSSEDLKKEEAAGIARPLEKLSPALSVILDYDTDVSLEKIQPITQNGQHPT
Sequence of 5-hydroxytryptamine receptor 2A (P50129 whole entry): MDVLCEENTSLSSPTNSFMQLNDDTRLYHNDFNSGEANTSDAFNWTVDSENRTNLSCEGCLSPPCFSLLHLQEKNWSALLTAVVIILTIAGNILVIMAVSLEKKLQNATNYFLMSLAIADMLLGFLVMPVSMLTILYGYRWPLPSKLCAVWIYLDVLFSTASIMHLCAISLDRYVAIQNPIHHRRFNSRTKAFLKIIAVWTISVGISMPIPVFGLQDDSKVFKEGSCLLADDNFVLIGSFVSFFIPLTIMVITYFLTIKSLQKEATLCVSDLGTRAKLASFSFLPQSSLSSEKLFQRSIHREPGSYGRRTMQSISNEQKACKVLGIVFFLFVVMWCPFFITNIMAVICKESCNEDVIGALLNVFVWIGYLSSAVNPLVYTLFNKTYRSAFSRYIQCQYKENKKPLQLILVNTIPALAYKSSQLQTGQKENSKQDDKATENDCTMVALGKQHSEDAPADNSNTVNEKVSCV
Sequence of 5-hydroxytryptamine receptor 2A (Sus scrofa) (P50129 whole entry): as above

`COc1ccc2c(c1)CCN(C)CCCc1ccccc1C2`: the Kb in assay [1] is 3.39 nM. At D(1A) dopamine receptor, affinity was put at a Ki of 21.9 nM.

Regarding `CN1CCc2ccccc2Cc2ccc(O)c(Cl)c2CC1`, the Ki (in general, a dissociation constant, usually derived from enzyme kinetics or from competition with a known ligand) is 3.55 nM on D(2) dopamine receptor and 0.813 nM at D(1A) dopamine receptor. Moreover, the Kb in assay [1] was 0.891 nM.

As for `CN1CCCc2c([nH]c3ccccc23)Cc2ccccc2CC1`, the Ki is 115 nM on D(2) dopamine receptor and 158 nM on D(1A) dopamine receptor. Moreover, in assay [1], the Kb is 3.8 nM.

On to `CN1CCc2ccccc2Cc2[nH]c3ccccc3c2CC1`, for which the Ki at D(2) dopamine receptor was 41.7 nM; on D(1A) dopamine receptor it was 1.86 nM. Besides, in assay [2], the pD2 turned out to be 9.79.

On to `CN1CCCc2ccccc2Cc2ccc(O)cc2CC1`, for which the figures for the Ki at D(2) dopamine receptor and on D(1A) dopamine receptor were 41.7 nM and 2.67 nM, respectively. Moreover, the Kb in assay [1] is 2.14 nM.

`CN1CCc2ccccc2Cc2[nH]c3ccc(O)cc3c2CC1` showed a Ki at D(2) dopamine receptor of 43.7 nM. Besides, the pD2 in assay [2] amounted to 9.97.

As for `O=C(c1ccc(F)cc1)C1CCN(CCn2c(=O)[nH]c3ccccc3c2=O)CC1` [KETANSERIN], the Kb in assay [1] was 1.32 nM.

Consider `CN1CCCc2ccccc2Cc2[nH]c3ccccc3c2CC1`, for which the Ki at D(2) dopamine receptor is 13.5 nM; on D(1A) dopamine receptor, 2.04 nM. The pD2 in assay [2] was found to be 9.77.

For the compound `CCN1CCc2ccccc2Cc2ccc(O)cc2CC1`, the figures for the inhibition constant (Ki) on D(2) dopamine receptor and on D(1A) dopamine receptor were 77.6 nM and 3.72 nM, respectively. Besides, the Kb in assay [1] is 3.98 nM.

Turning to `Oc1ccc2c(c1)CCNCCc1ccccc1C2`, the inhibition constant (Ki) is 389 nM on D(2) dopamine receptor and 63.1 nM at D(1A) dopamine receptor. In addition, in assay [1], the Kb was 61.7 nM.

Turning to `CN1CCc2ccccc2Cc2ccc(O)cc2CC1`, the Kb in assay [1] was 0.646 nM.

With `COc1ccc2c(c1)CCCN(C)CCc1ccccc1C2`, the results for the Ki at D(2) dopamine receptor and at D(1A) dopamine receptor were 24.5 nM and 28.2 nM, respectively. For the same compound, the Kb in assay [1] is 5.75 nM.

Turning to `COc1ccc2c(c1)CCN(C)CCc1ccccc1C2`, the Kb in assay [1] is 2.04 nM. At D(1A) dopamine receptor, this compound showed an inhibitory constant (Ki) of 22.9 nM.

(Values after ChEMBL document CHEMBL1157471, “Dopamine/serotonin receptor ligands. Part 17: a cross-target SAR approach: affinities of azecine-styled ligands for 5-HT(2A) versus D1 and D2 receptors” (Bioorg Med Chem Lett, 2008).)
